This note sets out measurements from ChEMBL document CHEMBL1154431, “Synthesis of biologically active N-methyl derivatives of amidines and cyclized five-membered products of amidines with oxalyl chloride” (2008).

Assay type in all cases: functional
In assay [1] the test system is Rattus norvegicus. Briefly: Antiinflammatory activity against carrageenan-induced paw edema in albino rat at 100 mg/kg, po administered 30 mins before carrageenan challenge measured after 1 to 3 hrs.
For assay [2], the system named is Mus musculus. The assay is described as follows: Analgesic activity in mouse assessed as decrease in acetic acid-induced writhing at 100 mg/kg, po administered 30 mins before acetic acid challenge measured after 1 hr. The arrangement: scale not given: the % may be the effect or the level left. In general terms: An intraperitoneal irritant provokes the stretching counted in writhing tests.

The test system of assay [3] is Mus musculus. The assay is described as follows: Analgesic activity in mouse assessed as decrease in acetic acid-induced writhing at 50 mg/kg, po administered 30 mins before acetic acid challenge measured after 1 hr. The arrangement: scale not given: the % may be the effect or the level left.
Assay [4] concerns Rattus norvegicus. Briefly: Antiinflammatory activity against carrageenan-induced paw edema in albino rat at 50 mg/kg, po administered 30 mins before carrageenan challenge measured after 1 to 3 hrs.
For assay [5], the system named is Mus musculus. The assay is described as follows: Analgesic activity in mouse assessed as decrease in acetic acid-induced writhing at 25 mg/kg, po administered 30 mins before acetic acid challenge measured after 1 hr. Further details: scale not given: the % may be the effect or the level left.
Assay [6] has as its system Rattus norvegicus. The assay is described as follows: Antiinflammatory activity against carrageenan-induced paw edema in albino rat at 25 mg/kg, po administered 30 mins before carrageenan challenge measured after 1 to 3 hrs. A general note: In the carrageenan paw model, swelling and tenderness develop within hours.

As for `C/N=C(/NNS(=O)(=O)c1ccc(C)cc1)c1ccccn1`, the figures for the Activity in assay [1] and in assay [2] were 12% and 75%, respectively.

In the case of `COc1ccc(S(=O)(=O)NN2C(=O)C(=O)N=C2c2ccccn2)cc1`, the Activity in assay [3] is given as 18%; in assay [4], 20%.

As to `Cc1ccc(S(=O)(=O)NN2C(=O)C(=O)N=C2c2ccccn2)cc1`, the Activity in assay [3] amounted to 60%; in assay [4], 31%.

With `C/N=C(/NNS(=O)(=O)c1ccc(OC)cc1)c1ccncc1`, the Activity in assay [3] is reported as 13%; in assay [4], 21%.

Turning to `C/N=C(/NNS(=O)(=O)c1ccccc1)c1cnccn1`, the Activity in assay [3] and in assay [4] was 11% each time.

For `COc1ccc(S(=O)(=O)NN2C(=O)C(=O)N=C2c2ccncc2)cc1`, the Activity in assay [1] is listed as 34%; in assay [2], 75%.

Take `C/N=C(/NNS(=O)(=O)c1ccc(OC)cc1)c1cnccn1`: the Activity in assay [3] was 16%; in assay [4] it was 20%.

Regarding `O=C1N=C(c2ccncc2)N(NS(=O)(=O)c2ccccc2)C1=O`, the Activity was 60% in assay [3] and 37% in assay [4].

Turning to `COc1ccc(S(=O)(=O)NN2C(=O)C(=O)N=C2c2cnccn2)cc1`, the Activity is reported as 12% in assay [3] and 13% in assay [4].

For the compound `C/N=C(/NNS(=O)(=O)c1ccc(C)cc1)c1ccncc1`, the Activity in assay [3] came to 17%; in assay [5], 9%; in assay [1] it was 56%; in assay [2], 33%; in assay [4], 44%; in assay [6], 27%.

In the case of `O=C1N=C(c2cnccn2)N(NS(=O)(=O)c2ccccc2)C1=O`, the values for the Activity in assay [3] and in assay [4] were 30% and 25%, respectively.

`C/N=C(/NNS(=O)(=O)c1ccccc1)c1ccncc1`: the results for the Activity in assay [3] and in assay [4] were 7% and 16%, respectively.

Turning to `C/N=C(/NNS(=O)(=O)c1ccc(OC)cc1)c1ccccn1`, the Activity in assay [3] and in assay [4] was 20% each time.

In the case of `CCCCC1C(=O)N(c2ccccc2)N(c2ccccc2)C1=O` [PHENYLBUTAZONE], the Activity in assay [3] is listed as 40%; in assay [5], 24%; in assay [1], 58%; in assay [2], 58%; in assay [4], 37%; in assay [6], 19%.
